Laboratory results from ChEMBL document CHEMBL5104178, “Nitroimidazopyrazinones with Oral Activity against Tuberculosis and Chagas Disease in Mouse Models of Infection” (J Med Chem, 2022).
Converted amounts (≈) assume the structure as drawn.

Key:
[1] = tested on: Trypanosoma cruzi; test: Antitrypanosomal activity against Trypanosoma cruzi Tulahuen amastigotes infected in mouse 3T3 cells assessed as inhibition of parasite growth incubated for 48 hrs by […] staining based analysis; assay type: functional, organism-based
[2] = tested on: Trypanosoma cruzi; test: Antitrypanosomal activity against Trypanosoma cruzi Tulahuen amastigotes infected in mouse 3T3 cells assessed as reduction in parasite growth at Emax concentration incubated for 48 hrs by […] staining based analysis; assay type: functional; design: scale not given: the % may be the effect or the level left
[3] = Cytotoxicity against mouse 3T3 cells; assay type: toxicity, cell-based; settings: NIH3T3 cells
[4] = Selectivity index, ratio of CC50 for cytotoxicity against mouse 3T3 cells to IC50 for antitrypanosomal activity against Trypanosoma cruzi Tulahuen amastigotes infected in mouse 3T3 cells; assay type: toxicity, cell-based; settings: read-out: Ratio CC50/IC50
[5] = tested on: Trypanosoma cruzi; test: Antitrypanosomal activity against bioluminescent Trypanosoma cruzi CL Brener trypomastigotes infected in BALB/c mouse assessed as reduction in parasite burden at 100 mg/kg, po administered once daily for 5 days starting from 14 days post infection and measured on 36 days post infection; assay type: functional; design: scale not given: the % may be the effect or the level left; settings: time 22 day
[6] = Cmax in CD-1 mouse at 20 mg/kg, po administered as DMSO/PEG400 formulation measured upto 24 hrs by LC-MS/MS analysis; assay type: ADME, organism-based; design: dose 20 mg/kg, time < 24 hrs, route po; settings: in vivo
[7] = Tmax in CD-1 mouse at 20 mg/kg, po administered as DMSO/PEG400 formulation measured upto 24 hrs by LC-MS/MS analysis; assay type: ADME, organism-based; settings: in vivo
[8] = Half life in CD-1 mouse at 20 mg/kg, po administered as DMSO/PEG400 formulation measured upto 24 hrs by LC-MS/MS analysis; assay type: ADME, organism-based; settings: in vivo
[9] = Oral bioavailability in CD-1 mouse at 20 mg/kg administered as DMSO/PEG400 formulation measured upto 24 hrs by LC-MS/MS analysis; assay type: ADME, organism-based; settings: in vivo
[10] = Volume of distribution at steady state in CD-1 mouse at 5 mg/kg, iv administered as DMSO/PEG400 formulation measured upto 24 hrs by LC-MS/MS analysis; assay type: ADME, organism-based; settings: in vivo, read-out: Vdss
[11] = Clearance in CD-1 mouse at 5 mg/kg, iv administered as DMSO/PEG400 formulation measured upto 24 hrs by LC-MS/MS analysis; assay type: ADME, organism-based; settings: in vivo
[12] = Half life in CD-1 mouse at 5 mg/kg, iv administered as DMSO/PEG400 formulation measured upto 24 hrs by LC-MS/MS analysis; assay type: ADME, organism-based; settings: in vivo
[13] = AUC(0 to 24 hrs) in CD-1 mouse at 20 mg/kg, po administered as DMSO/PEG400 formulation measured upto 24 hrs by LC-MS/MS analysis; assay type: ADME, organism-based; design: dose 20 mg/kg, time < 24 hrs, route po; settings: in vivo
[14] = tested on: Trypanosoma cruzi; test: Antitrypanosomal activity against bioluminescent Trypanosoma cruzi CL Brener trypomastigotes infected in BALB/c mouse assessed as reduction in parasite burden at 50 mg/kg, po administered twice daily for 5 days starting from 14 days post infection and measured on 36 days post infection; assay type: functional; design: scale not given: the % may be the effect or the level left; settings: time 22 day
[15] = Solubility of compound in water by LC-UV analysis; assay type: physicochemical; settings: buffer
[16] = tested on: Mycobacterium tuberculosis; test: Antimycobacterial activity against Mycobacterium tuberculosis H37Rv ATCC 27294 assessed as bacterial growth inhibition incubated for 5 days under normoxic condition by resazurin microtiter assay; assay type: functional; settings: H37Rv ATCC 27294, 120 h, time 5 day
[17] = tested on: Mycobacterium tuberculosis; test: Antimycobacterial activity against Mycobacterium tuberculosis H37Ra ATCC 25177 assessed as bacterial growth inhibition incubated for 6 days under normoxic condition by resazurin microtiter assay; assay type: functional; settings: H37Ra ATCC 25177, 144 h, time 6 day
[18] = tested on: Mycobacterium avium; test: Antimycobacterial activity against Mycobacterium avium ATCC 25291 assessed as bacterial growth inhibition incubated for 6 days under normoxic condition by resazurin microtiter assay; assay type: functional; settings: ATCC 25291, 144 h, time 6 day
[19] = tested on: Mycolicibacterium smegmatis; test: Antimycobacterial activity against Mycobacterium smegmatis mc2155 ATCC 700084 assessed as bacterial growth inhibition incubated for 24 hrs under normoxic condition by resazurin microtiter assay; assay type: functional
[20] = tested on: Mycobacterium tuberculosis; test: Antimycobacterial activity against Mycobacterium tuberculosis H37Rv ATCC 27294 assessed as bacterial growth inhibition incubated for 5 days under hypoxic condition by resazurin microtiter assay; assay type: functional; settings: H37Rv ATCC 27294, 120 h, time 5 day
[21] = tested on: Mycobacterium tuberculosis; test: Substrate activity at Mycobacterium tuberculosis Ddn expressed in Escherichia coli BL21 (DE3) assessed as oxidation of F420H2 by measuring Kcat by spectrophotometric analysis
[22] = tested on: Mycobacterium tuberculosis; test: Substrate activity at Mycobacterium tuberculosis Ddn expressed in Escherichia coli BL21 (DE3) assessed as oxidation of F420H2 by measuring Km by spectrophotometric analysis
[23] = tested on: Mycobacterium tuberculosis; test: Substrate activity at Mycobacterium tuberculosis Ddn expressed in Escherichia coli BL21 (DE3) assessed as oxidation of F420H2 by measuring Kcat/Km by spectrophotometric analysis
[24] = Cmax in CD-1 mouse at 20 mg/kg, po administered as DMSO/PEG400/Cremophor RH40/water formulation measured upto 24 hrs by LC-MS/MS analysis; assay type: ADME, organism-based; design: dose 20 mg/kg, time < 24 hrs, route po; settings: in vivo
[25] = AUC(0 to 8 hrs) in CD-1 mouse at 20 mg/kg, po administered as DMSO/PEG400/Cremophor RH40/water formulation measured upto 24 hrs by LC-MS/MS analysis; assay type: ADME, organism-based; design: time < 24 hrs, dose 20 mg/kg, route po; settings: in vivo
[26] = Tmax in CD-1 mouse at 20 mg/kg, po administered as DMSO/PEG400/Cremophor RH40/water formulation measured upto 24 hrs by LC-MS/MS analysis; assay type: ADME, organism-based; settings: in vivo
[27] = Half life in CD-1 mouse at 20 mg/kg, po administered as DMSO/PEG400/Cremophor RH40/water formulation measured upto 24 hrs by LC-MS/MS analysis; assay type: ADME, organism-based; settings: in vivo
[28] = Oral bioavailability in CD-1 mouse at 20 mg/kg administered as DMSO/PEG400/Cremophor RH40/water formulation measured upto 24 hrs by LC-MS/MS analysis; assay type: ADME, organism-based; settings: in vivo
[29] = Volume of distribution at steady state in CD-1 mouse at 5 mg/kg, iv administered as DMSO/PEG400/Cremophor RH40/water formulation measured upto 24 hrs by LC-MS/MS analysis; assay type: ADME, organism-based; settings: in vivo, read-out: Vdss
[30] = Clearance in CD-1 mouse at 5 mg/kg, iv administered as DMSO/PEG400/Cremophor RH40/water formulation measured upto 24 hrs by LC-MS/MS analysis; assay type: ADME, organism-based; settings: in vivo
[31] = Half life in CD-1 mouse at 5 mg/kg, iv administered as DMSO/PEG400/Cremophor RH40/water formulation measured upto 24 hrs by LC-MS/MS analysis; assay type: ADME, organism-based; settings: in vivo
[32] = Cmax in CD-1 mouse at 25 mg/kg, po measured upto 48 hrs by LC/MS/MS analysis; assay type: ADME, organism-based; design: time < 48 hrs, dose 25 mg/kg, route po; settings: in vivo
[33] = AUC (0 to last) in CD-1 mouse at 25 mg/kg, po measured upto 48 hrs by LC/MS/MS analysis; assay type: ADME, organism-based; design: dose 25 mg/kg, time < 48 hrs, route po; settings: in vivo
[34] = Tmax in CD-1 mouse at 25 mg/kg, po measured upto 48 hrs by LC/MS/MS analysis; assay type: ADME, organism-based; settings: in vivo
[35] = Half life in CD-1 mouse at 25 mg/kg, po measured upto 48 hrs by LC/MS/MS analysis; assay type: ADME, organism-based; settings: in vivo
[36] = Oral bioavailability in CD-1 mouse at 25 mg/kg measured upto 48 hrs by LC/MS/MS analysis; assay type: ADME, organism-based; settings: in vivo
[37] = Volume of distribution at steady state in CD-1 mouse at 10 mg/kg, iv measured upto 48 hrs by LC/MS/MS analysis; assay type: ADME, organism-based; settings: in vivo, read-out: Vdss
[38] = Clearance in CD-1 mouse at 10 mg/kg, iv measured upto 48 hrs by LC/MS/MS analysis; assay type: ADME, organism-based; settings: in vivo
[39] = Half life in CD-1 mouse at 10 mg/kg, iv measured upto 48 hrs by LC/MS/MS analysis; assay type: ADME, organism-based; settings: in vivo

With `O=C(Cn1ccnc1[N+](=O)[O-])NCc1ccccc1` [BENZNIDAZOLE] as the molecule, how does the IC50 ([1]; NIH3T3, 48 h) read?
Its IC50 is 7.6 µM.

What about the IC90 ([1]; NIH3T3, time 48 hrs) of the same molecule?
The IC90 was 28 µM.

What about the Activity [2] of the same molecule?
The Activity was 100%.

What about the CC50 [3] of the same molecule?
Its CC50 is > 127 µM.

What about the selectivity ratio [4] of the same molecule?
Its selectivity ratio is > 17.

What about the Activity [5] of the same molecule?
Its Activity is 99.3%.

Which Cmax [6] does the source give for `O=c1c2nc([N+](=O)[O-])cn2ccn1Cc1ccc(-c2cccnc2)cc1` here?
The Cmax was 4500 ng/mL.

What about the Tmax [7] of the same molecule?
The Tmax was 0.67 h.

What about the half-life [8] of the same molecule?
The half-life was 0.77 h.

And the bioavailability [9]?
Its bioavailability is 92%.

What about the Vd [10] of the same molecule?
Its Vd is 2.6 L/kg.

What about the clearance [11] of the same molecule?
Its clearance is 22.9 mL/min/kg.

What about the half-life [12] of the same molecule?
Its half-life is 1.5 h.

What about the AUC(0-t) at 24 h [13] of the same molecule?
Its AUC(0-t) at 24 h is 9260 ng·h/mL.

What about the Activity [14] of the same molecule?
Its Activity is 99.4%.

What does the source list for `O=c1[nH]c(-c2ccccc2)cn2cc([N+](=O)[O-])nc12`?
solubility [15]: 27 µM (≈ 6.92 µg/mL); MIC [16]: > 32 µg/mL; MIC [17]: > 32 µg/mL; MIC [18]: > 32 µg/mL; MIC [19]: > 32 µg/mL; MIC [20]: > 32 µg/mL; kcat [21]: 1.3 10^-3/s; Km [22]: 164 µM; kcat/Km [23]: 8.1 M⁻¹ s⁻¹; Cmax [24]: 13000 ng/mL; AUC(0-t) at 24 h [25]: 88300 ng·h/mL; Tmax [26]: 2 h; half-life [27]: 3.2 h; bioavailability [28]: 87%; Vd [29]: 0.34 L/kg; clearance [30]: 3.38 mL/min/kg; half-life [31]: 1.2 h

Which MIC [17] does the source give for `O=[N+]([O-])c1cn2c(n1)OC[C@@H](OCc1ccc(OC(F)(F)F)cc1)C2` [PRETOMANID] here?
Its MIC is ≤ 0.016 µg/mL.

And the MIC [18]?
Its MIC is > 32 µg/mL.

What about the MIC [19] of the same molecule?
The MIC was > 32 µg/mL.

And the kcat [21]?
The kcat was 9.3 10^-3/s.

And the Km [22]?
Its Km is 7.3 µM.

And the kcat/Km [23]?
Its kcat/Km is 1260 M⁻¹ s⁻¹.

And the Cmax [32]?
The Cmax was 6000 ng/mL.

What about the AUC(0-t) at 48 h [33] of the same molecule?
The AUC(0-t) at 48 h was 50900 ng·h/mL.

And the Tmax [34]?
Its Tmax is 2 h.

And the half-life [35]?
The half-life was 2.7 h.

And the bioavailability [36]?
Its bioavailability is 100%.

And the Vd [37]?
Its Vd is 1.6 L/kg.

What about the clearance [38] of the same molecule?
The clearance was 12.1 mL/min/kg.

What about the half-life [39] of the same molecule?
Its half-life is 1.6 h.
